{"source": "patent US10555930B2", "about": "“Complex of a glucopyranosyl derivative and preparation method and use thereof” (SUNSHINE LAKE PHARMA CO., LTD., priority 2015, dated 2020)", "key": {"[1]": {"assay": "Measurement of hygroscopicity (Chinese Pharmacopoeia 2010, part II, appendix XIXJ)", "assay_type": "physicochemical", "conditions": "25° C.±1° C., constant humidity (ammonium chloride or ammonium sulfate saturated solution), 24 h", "description": "Test method: According to the method regulated by Chinese pharmacopoeia 2010, part II, appendix XIXJ, a dry glass weighing bottle with a stopper (outside diameter is 50 mm, high is 15 mm) was placed in a thermostatic drier (an ammonium chloride or ammonium sulfate saturated solution was placed in the bottom) at 25° C.±1° C. before one day of experiment, the empty glass weighing bottle with a stopper was weighed accurately by using METTLERTOLEDO XP205DR analytical balance, and recorded as m1. An appropriate amount of the Complex (IA) sample (prepared from example 2) was tiled on the above weighing bottle at a thickness of 1 mm, which was weighed accurately and recorded as m2. Opening the bottle, the bottle was placed under the above constant temperature and humidity condition for 24 h […]. Closing the bottle with the stopper, the bottle was weighed accurately, and recorded as m3, the weight gain percentage (%) was calculated.\nThe judgement of the results hygroscopicity was shown as table C."}, "[2]": {"assay": "Measurement of solubility (Chinese Pharmacopoeia 2010 method)", "assay_type": "physicochemical", "description": "Judgement standard of solubility are shown as table A."}, "[3]": {"assay": "Measurement of stability (high-temperature, high-humidity and photostability tests; HPLC impurity content)", "assay_type": "physicochemical", "conditions": "for total impurity / purity: 210 nm", "description": "An appropriate amount of the Complex (IA) sample (prepared from example 2) was weighed and tiled on a clean culture dish at a thickness of ≤5 mm, and analyzed under the following conditions:\nThe test sample was placed under a high temperature condition (60±2° C.) for 10 d, the relative indexes were measured at the fifth and tenth days. […] If no significant change, the test at 40° C. was not necessary.\nThe test sample was placed under a 25° C. and RH 90%±5% condition for 10 d, and the sample were measured at the fifth and tenth days. Test items should include a moisture-absorption weight gain. If weighting percentage of moisture absorption was more than 5%, the test should be carried out under a 25° C. and RH 75%±5% condition using the same method; If weighting percentage of moisture absorption was less than 5%, and other inspection items met the requirements, the test was not necessary. The constant humidity condition can be realized by adopting constant temperature humidity chamber or placing a saturated saline solution under a closed container. […]\nThe test sample was placed in light box or other suitable light vessel under a 4500 Lx±500 Lx of illuminance condition for 10 d, and the sample were measured at the fifth and tenth days.\nThe impurity content of the sample was calculated by the normalization method of peak area using an HPLC chromatographic instrument under the above condition, the analytic conditions were shown below:\nThe detection was performed on Agilent 1200DAD high pressure liquid chromatography spectrometer (Zorbax Eclipse Plus C18 150×4.6 mm chromatographic column).\nThe test condition of HPLC: the run time was 30 minutes (min); the column temperature was 35° C.; the detection was carried out at the wavelength of 210 nm and 225 nm;\nMobile phase: phase C: acetonitrile phase D: ultrapure water flow rate: 1.0 mL/min.\nGradient elution, the ratio of mobile phase was shown as table B."}, "human SGLT-2": {"molecular_target": "T1, human SGLT-2 (Homo sapiens, UniProt P31639)", "T1 construct": "expressed in transfected cells; host or cells: CHO cells (Flp-in CHO)", "T1 sequence (P31639 1-672)": "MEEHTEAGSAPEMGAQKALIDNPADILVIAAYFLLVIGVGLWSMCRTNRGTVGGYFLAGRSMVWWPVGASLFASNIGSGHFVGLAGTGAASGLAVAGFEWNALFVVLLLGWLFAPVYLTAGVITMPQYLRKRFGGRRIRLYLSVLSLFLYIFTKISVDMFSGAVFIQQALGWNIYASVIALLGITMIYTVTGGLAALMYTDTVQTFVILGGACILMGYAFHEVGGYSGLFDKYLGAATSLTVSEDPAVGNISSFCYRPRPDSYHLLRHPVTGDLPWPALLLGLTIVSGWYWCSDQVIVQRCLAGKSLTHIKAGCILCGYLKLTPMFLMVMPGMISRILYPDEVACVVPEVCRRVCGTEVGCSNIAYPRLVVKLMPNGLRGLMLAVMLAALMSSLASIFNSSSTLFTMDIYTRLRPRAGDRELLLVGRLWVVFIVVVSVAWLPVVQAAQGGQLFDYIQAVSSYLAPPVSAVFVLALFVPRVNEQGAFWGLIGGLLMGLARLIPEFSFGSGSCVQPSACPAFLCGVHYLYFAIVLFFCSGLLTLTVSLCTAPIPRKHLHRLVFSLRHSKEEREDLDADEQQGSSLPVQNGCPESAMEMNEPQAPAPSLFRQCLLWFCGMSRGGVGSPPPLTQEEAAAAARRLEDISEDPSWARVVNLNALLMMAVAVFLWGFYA", "assay": "Inhibitory activity against SGLT-2, [14C]-AMG uptake in CHO cells", "assay_type": "cell-based", "description": "The following method was used for detecting inhibitory activity of the compounds of the invention against SGLT-1 and SGLT-2.\n3×10^4 of FIP-in CHO cells transfected Mock and CHO cells expressing human SGLT-1/SGLT-2 gene were seeded into a 96-well cell culture plate; the cells were incubated for 12 hours, and then to each well was added 150 μL of Na-free buffer to wash the cells once; and then to each well were added 50 μL of Na buffer containing the compound at different concentrations and 0.5 μM [^14C]-AMG, and the plate was incubated in a incubator at 37° C. for 1 hour, the reaction was terminated by adding 150 μL of pre-cooled Na-free buffer; the cells were further washed with Na-free buffer 3 times and the residual liquid was removed; to each well was added 20 μL of pre-cooled NaOH ([…]), the plate was vibrated at 900 rpm for 5 min; and then to each well was added 80 μL of scintillation solution, the plate was vibrated at 600 rpm for 5 min; the plate was analyzed on liquid scintillation counter."}, "[4]": {"conditions": "solvent DMA, sampling weight 100.02, solvent volume 0.095 mL"}, "[5]": {"conditions": "solvent DMSO, sampling weight 100.16, solvent volume 0.095 mL"}, "[6]": {"conditions": "solvent acetonitrile, sampling weight 100.20, solvent volume 2.90 mL"}, "[7]": {"conditions": "solvent ethanol, sampling weight 100.10, solvent volume 2.90 mL"}, "[8]": {"conditions": "solvent methanol, sampling weight 100.23, solvent volume 0.095 mL"}, "[9]": {"conditions": "high humidity (25° C., RH 90%±5%), 5 d, HPLC"}, "[10]": {"conditions": "high humidity (25° C., RH 90%±5%), 10 d, HPLC"}, "[11]": {"conditions": "high-temperature (60±2° C.), 5 d, HPLC"}, "[12]": {"conditions": "high-temperature (60±2° C.), 10 d, HPLC"}, "[13]": {"conditions": "illumination (4500 Lx±500 Lx), 5 d, HPLC"}, "[14]": {"conditions": "illumination (4500 Lx±500 Lx), 10 d, HPLC"}}, "data": [{"smiles": "CCOc1ccc(Cc2cc([C@]34OC[C@]([C@@H](C)O)(O3)[C@@H](O)[C@H](O)[C@H]4O)ccc2Cl)cc1", "note": "[Complex (IA), Complex (IA) of (1R,2S,3S,4R,5S)-5-(4-chloro-3-(4-ethoxybenzyl)phenyl)-1-((1R)-1-hydroxyethyl)-6,8-dioxabicyclo[3.2.1]octane-2,3,4-triol (I-n) and L-pyroglutamic acid]", "values": [{"measurement": "weight gain percentage", "setting": "[1]", "value": 0.27, "unit": "%"}, {"measurement": "solubility (summary in words)", "setting": "[2]; in acetonitrile, methanol, ethanol, DMSO and DMA", "value": "good solubility"}, {"measurement": "solubility results", "setting": "[2]; [4]", "value": "Very soluble (1 g (mL) of solute can be dissolved completely in a <1 mL of solvent)"}, {"measurement": "yes/no dissolved", "setting": "[2]; [4]", "value": "yes"}, {"measurement": "solubility results", "setting": "[2]; [5]", "value": "Very soluble (1 g (mL) of solute can be dissolved completely in a <1 mL of solvent)"}, {"measurement": "yes/no dissolved", "setting": "[2]; [5]", "value": "yes"}, {"measurement": "solubility results", "setting": "[2]; [6]", "value": "Soluble (1 g (mL) of solute can be dissolved completely in a 10 to <30 mL of solvent)"}, {"measurement": "yes/no dissolved", "setting": "[2]; [6]", "value": "yes"}, {"measurement": "solubility results", "setting": "[2]; [7]", "value": "Soluble (1 g (mL) of solute can be dissolved completely in a 10 to <30 mL of solvent)"}, {"measurement": "yes/no dissolved", "setting": "[2]; [7]", "value": "yes"}, {"measurement": "solubility results", "setting": "[2]; [8]", "value": "Very soluble (1 g (mL) of solute can be dissolved completely in a <1 mL of solvent)"}, {"measurement": "yes/no dissolved", "setting": "[2]; [8]", "value": "yes"}, {"measurement": "yes/no dissolved", "setting": "[2]; solvent water, sampling weight 10.33, solvent volume 102 mL", "value": "no"}, {"measurement": "total impurity", "setting": "[3]; 0 d, HPLC peak area normalization", "value": 0.15, "unit": "%"}, {"measurement": "purity", "setting": "[3]; 0 d, HPLC", "value": 99.85, "unit": "%"}, {"measurement": "purity", "setting": "[3]; [9]", "value": 99.85, "unit": "%"}, {"measurement": "total impurity", "setting": "[3]; [9]", "value": 0.15, "unit": "%"}, {"measurement": "purity", "setting": "[3]; [10]", "value": 99.81, "unit": "%"}, {"measurement": "total impurity", "setting": "[3]; [10]", "value": 0.19, "unit": "%"}, {"measurement": "purity", "setting": "[3]; [11]", "value": 99.83, "unit": "%"}, {"measurement": "total impurity", "setting": "[3]; [11]", "value": 0.17, "unit": "%"}, {"measurement": "purity", "setting": "[3]; [12]", "value": 99.81, "unit": "%"}, {"measurement": "total impurity", "setting": "[3]; [12]", "value": 0.19, "unit": "%"}, {"measurement": "stability (summary in words)", "setting": "[3]; high-temperature, high humidity or illumination for 10 d", "value": "good stability"}, {"measurement": "purity", "setting": "[3]; [13]", "value": 99.83, "unit": "%"}, {"measurement": "total impurity", "setting": "[3]; [13]", "value": 0.17, "unit": "%"}, {"measurement": "purity", "setting": "[3]; [14]", "value": 99.78, "unit": "%"}, {"measurement": "total impurity", "setting": "[3]; [14]", "value": 0.22, "unit": "%"}, {"measurement": "SGLT-2 inhibitory activity", "setting": "human SGLT-2; CHO cells expressing human SGLT-2, [14C]-AMG", "value": "has SGLT-2 and SGLT-1 inhibitory activity"}, {"measurement": "inhibitory activity to SGLT-2 compared with SGLT-1", "setting": "human SGLT-2; SGLT-2 versus SGLT-1", "value": "the inhibitory activity to SGLT-2 is much more stronger than that to SGLT-1"}]}]}
